Test [1] addresses T1, native human LOX enzyme (Homo sapiens, UniProt P28300).
T1 construct: fibroblast derived LOX, which was prepared by collecting the supernatant of IMR90 cells; endogenous in cells; host or cells: IMR90 cells (supernatant, size filtered > 10 kDa and < 50 kDa)
T1 sequence (P28300 169-417): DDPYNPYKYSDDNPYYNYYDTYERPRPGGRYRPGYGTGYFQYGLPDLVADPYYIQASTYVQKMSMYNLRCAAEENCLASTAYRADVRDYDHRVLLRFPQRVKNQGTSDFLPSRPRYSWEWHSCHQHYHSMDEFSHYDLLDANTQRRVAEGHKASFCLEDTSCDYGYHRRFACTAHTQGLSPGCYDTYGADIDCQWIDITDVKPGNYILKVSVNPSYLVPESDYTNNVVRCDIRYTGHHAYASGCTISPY
The experiment in a line: Amplex Red activity/inhibition assay, native fibroblast-derived LOX. It is filed as biochemical. The note with it: native fibroblast (IMR90) derived LOX; putrescine substrate. The protocol:
(§1) The standard amplex red assay has been used as previously described using putrescine as a substrate and native ´fibroblast derived LOX, which was prepared by collecting the supernatant of IMR90 cells, followed by a size filtration > 10 kDa for concentration and < 50 kDa to separate from LOXL2, or recombinant LOXL2 as enzyme (R&D Systems).

The target of test [2] is T2, recombinant LOXL2 (Homo sapiens, UniProt Q9Y4K0).
T2 construct: purchased R&D Systems
T2 sequence (Q9Y4K0 26-774): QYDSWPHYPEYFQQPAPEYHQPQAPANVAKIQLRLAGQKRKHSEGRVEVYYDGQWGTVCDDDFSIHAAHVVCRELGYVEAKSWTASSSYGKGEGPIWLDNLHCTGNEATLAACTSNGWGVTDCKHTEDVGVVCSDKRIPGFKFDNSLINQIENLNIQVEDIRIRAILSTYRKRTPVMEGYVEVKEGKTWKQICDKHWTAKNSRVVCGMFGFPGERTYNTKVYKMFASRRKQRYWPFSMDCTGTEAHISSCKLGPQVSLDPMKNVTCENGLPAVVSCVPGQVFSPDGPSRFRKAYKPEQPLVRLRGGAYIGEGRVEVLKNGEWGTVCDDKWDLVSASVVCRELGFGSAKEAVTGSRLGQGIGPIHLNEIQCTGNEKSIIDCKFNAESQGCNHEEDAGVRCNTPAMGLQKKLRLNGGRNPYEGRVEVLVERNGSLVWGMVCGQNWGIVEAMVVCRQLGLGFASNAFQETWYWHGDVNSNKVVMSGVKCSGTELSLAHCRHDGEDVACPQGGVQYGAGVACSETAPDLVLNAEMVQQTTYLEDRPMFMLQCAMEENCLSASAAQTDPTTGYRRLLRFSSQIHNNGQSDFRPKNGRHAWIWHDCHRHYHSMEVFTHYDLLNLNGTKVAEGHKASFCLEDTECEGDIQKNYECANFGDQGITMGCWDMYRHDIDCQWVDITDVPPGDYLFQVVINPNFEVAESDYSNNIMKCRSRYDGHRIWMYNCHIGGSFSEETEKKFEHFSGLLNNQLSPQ
The experiment in a line: Amplex Red activity/inhibition assay, recombinant LOXL2. It is filed as biochemical. To be noted: putrescine substrate. The protocol:
as §1

For the compound `N#CCCN` [BAPN, β-aminopropionitrile], in test [1], the “pIC50 ± SD against native human LOX enzyme” value is given as 5.5 ± 0.1. For the same compound, in test [2], the “pIC50 ± SD against recombinant LOXL2 enzyme” value worked out at 6.4 ± 0.1.

The record behind these values is paper PMC5432238, “Pre-clinical evaluation of small molecule LOXL2 inhibitors in breast cancer” (Oncotarget, 2017).
